{"source": "ChEMBL document CHEMBL1157901", "about": "“Discovery of a tetrahydropyrimidin-2(1H)-one derivative (TAK-442) as a potent, selective, and orally active factor Xa inhibitor” (J Med Chem, 2010)"}
{"experiment": "Metabolic stability in human liver microsomes assessed as compound remaining after 120 mins by HPLC", "type": "ADME, Microsome", "conditions": "read-out: Activity", "units": {"remaining at 2 h": "%"}}
{"compound": "Cc1ncc2n1C(=O)N(C1CCN(C(=O)CCS(=O)(=O)c3ccc4cc(Cl)ccc4c3)CC1)C2", "remaining at 2 h": 70.5}
{"experiment": "Metabolic stability in monkey liver microsomes assessed as compound remaining after 120 mins by HPLC", "type": "ADME, Macaca mulatta, Microsome", "conditions": "rhesus monkey, read-out: Activity", "units": {"remaining at 2 h": "%"}}
{"compound": "Cc1ncc2n1C(=O)N(C1CCN(C(=O)CCS(=O)(=O)c3ccc4cc(Cl)ccc4c3)CC1)C2", "remaining at 2 h": 99.9}
{"experiment": "Octanol-water partition coefficient, log D at pH 7.4", "type": "physicochemical", "conditions": "not given"}
{"compound": "O=C([C@H](O)CS(=O)(=O)c1ccc2cc(Cl)ccc2c1)N1CCC(N2Cc3ccccc3C2=O)CC1", "logD": 2.58}
{"compound": "O=C([C@H](O)CS(=O)(=O)c1ccc2cc(Cl)ccc2c1)N1CCC(N2C[C@@H]3CCCN3C2=O)CC1", "logD": 2.16}
{"compound": "O=C([C@H](O)CS(=O)(=O)c1ccc2cc(Cl)ccc2c1)N1CCC(N2C[C@H]3CCCN3C2=O)CC1", "logD": 2.16}
{"compound": "O=C([C@H](O)CS(=O)(=O)c1ccc2cc(Cl)ccc2c1)N1CCC(N2Cc3cccn3C2=O)CC1", "logD": 2.6}
{"compound": "O=C([C@H](O)CS(=O)(=O)c1ccc2cc(Cl)ccc2c1)N1CCC(n2cc[nH]c2=O)CC1", "logD": 1.79}
{"compound": "O=C([C@H](O)CS(=O)(=O)c1ccc2cc(Cl)ccc2c1)N1CCC(N2CCOC2=O)CC1", "logD": 1.75}
{"compound": "O=C([C@H](O)CS(=O)(=O)c1ccc2cc(Cl)ccc2c1)N1CCC(N2CCCC2=O)CC1", "logD": 1.96}
{"compound": "O=C([C@H](O)CS(=O)(=O)c1ccc2cc(Cl)ccc2c1)N1CCC(N2CCCS2(=O)=O)CC1", "logD": 1.69}
{"compound": "O=C([C@H](O)CS(=O)(=O)c1ccc2cc(Cl)ccc2c1)N1CCC(N2CCNC2=O)CC1", "logD": 1.73}
{"compound": "O=C([C@H](O)CS(=O)(=O)c1ccc2cc(Cl)ccc2c1)N1CCC(N2CCCCCC2=O)CC1", "logD": 2.52}
{"compound": "O=C([C@H](O)CS(=O)(=O)c1ccc2cc(Cl)ccc2c1)N1CCC(N2CCCC2)CC1", "logD": 1.56}
{"compound": "O=C([C@H](O)CS(=O)(=O)c1ccc2cc(Cl)ccc2c1)N1CCC(N2CCCOC2=O)CC1", "logD": 1.67}
{"compound": "O=C([C@H](O)CS(=O)(=O)c1ccc2cc(Cl)ccc2c1)N1CCC(N2CCOCC2=O)CC1", "logD": 1.85}
{"compound": "O=C([C@H](O)CS(=O)(=O)c1ccc2cc(Cl)ccc2c1)N1CCC(N2CCCCC2=O)CC1", "logD": 2.19}
{"compound": "O=C([C@H](O)CS(=O)(=O)c1ccc2cc(Cl)ccc2c1)N1CCC(N2NCCCC2=O)CC1", "logD": 1.85}
{"compound": "Cc1ncc2n1C(=O)N(C1CCN(C(=O)[C@H](O)CS(=O)(=O)c3ccc4cc(Cl)ccc4c3)CC1)C2", "logD": 2.13}
{"compound": "O=C([C@H](O)CS(=O)(=O)c1ccc2cc(Cl)ccc2c1)N1CCC(N2CCCNC2=O)CC1", "note": "[LETAXABAN]", "logD": 1.81}
